Results on 16 molecules are retold here after patent EP4640678A1, “NOVEL OXO-PYRIDINE COMPOUND, PREPARATION METHOD THEREFOR, AND USE THEREOF” (Chengdu Shibeikang Biomedical Technology Co., Ltd., priority 2022, dated 2024).

Series [1] is described as follows: Effect of continuous in-vivo administration on general condition and food intake of rats. The following applies: for Food intake (g, mean±SD) / food intake compared with the blank group: 500 mg/kg PO once a day for 14 days, within 24 hours after the last administration. From the text: Each group had 10 rats, equally distributed by gender. The rats received drug administrations via oral gavage once a day for 14 consecutive days, following the administration regimen outlined in the table below. The blank group was given an equal volume of a vehicle. […] Table 4 Continuous administration regimen

Another series deals with human FXla (Homo sapiens, UniProt P03951). The series can be described thus: Activity assay of coagulation factor FXla inhibitor (S-2366 substrate, OD405nm). Format: biochemical. The following applies: 5 concentrations 200 nM to 0.32 nM, 0.8 nM (2X) human FXla working solution. The source says: X: log value of compound concentration; Y: inhibition rate (%).
The next series relates to human plasma. The series can be described thus: determination of in-vitro anticoagulant effect in human plasma (APTT). Type of series: biochemical. To be noted: for APTT prolongation rate (%): healthy human plasma, 37°C for 3 min; for EC150: estimated from the APTT test results in human plasma. The procedure: After centrifugation, the plasma sample was pipetted and frozen (-80°C) for later use.
A proper amount of a compound was weighed and prepared into a 10-100 mM stock solution using 100% of DMSO (the specific concentration of the stock solution was determined based on the properties of the compound); and then working solutions with various concentrations (specifically: 1 µM, 3 µM and 10 µM, respectively) were prepared from the stock solution using the healthy human plasma as a solution and thoroughly mixed. After incubation at 37°C for 3 min, the sample was placed on an instrument (model: CS-2000I) to determine APTT.
GraphPad Prism software was used for analysis to calculate the APTT prolongation rate at each concentration.

The IC50 is the midpoint of a concentration-inhibition curve. Read a high IC50 as weaker potency in that assay.

Sequence of human FXla (P03951 388-625 limits assumed): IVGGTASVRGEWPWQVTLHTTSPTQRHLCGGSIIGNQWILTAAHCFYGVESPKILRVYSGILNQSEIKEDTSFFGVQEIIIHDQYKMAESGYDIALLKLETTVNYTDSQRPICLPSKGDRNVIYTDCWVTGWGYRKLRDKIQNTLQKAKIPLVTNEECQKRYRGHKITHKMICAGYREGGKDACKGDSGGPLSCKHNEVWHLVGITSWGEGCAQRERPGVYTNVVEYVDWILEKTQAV
Sequence of human FXla (P03951 19-387 partner limits assumed): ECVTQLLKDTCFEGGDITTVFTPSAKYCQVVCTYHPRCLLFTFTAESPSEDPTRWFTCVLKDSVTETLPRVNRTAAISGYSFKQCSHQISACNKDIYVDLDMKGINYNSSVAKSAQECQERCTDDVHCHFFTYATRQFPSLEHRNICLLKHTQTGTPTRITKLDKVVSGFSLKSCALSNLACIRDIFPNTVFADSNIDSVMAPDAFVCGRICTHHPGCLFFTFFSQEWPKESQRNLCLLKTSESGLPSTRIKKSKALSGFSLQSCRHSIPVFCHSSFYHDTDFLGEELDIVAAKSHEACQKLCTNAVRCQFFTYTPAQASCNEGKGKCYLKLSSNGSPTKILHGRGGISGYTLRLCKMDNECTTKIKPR

Turning to `CC[C@@H](C(=O)Nc1ccc(C(N)=O)c(F)c1)n1cc(OC)c(-c2cc(Cl)ccc2-n2cc(C(F)(F)F)nn2)cc1=O` [Comparative example 1, (S)-4-(2-(4-(5-chloro-2-(4-(trifluoromethyl)-1H-1,2,3-triazol-1-yl)phenyl)-5-methoxy-2-oxopyridin-1(2H)-yl)butanamido)-2-fluorobenzamide, reference compound], the “Food intake (g, mean±SD)” value in series [1] worked out at 24.98 ± 0.92 g. In series [1] (SD rats, 500 mg/kg PO once a day for 14 consecutive days), the “general condition of the rats” value is “piloerection and hypoactivity were found in 1/3 or more of the rats”. In series [1] (SD rats), the “food intake compared with the blank group” value is reported as “significantly reduced food intake”.

Regarding `CC[C@@H](C(=O)Nc1ccc(C(N)=O)c(Cl)c1)n1cc(OC)c(-c2cc(Cl)ccc2-n2cc(C(F)(F)F)nn2)cc1=O` [Compound 1, (S)-2-chloro-4-(2-(4-(5-chloro-2-(4-(trifluoromethyl)-1H-1,2,3-triazol-1-yl)phenyl)-5-methoxy-2-oxopyridin-1(2H)-yl)butanamido)benzamide], inhibition against human FXla was half-maximal at 7.53 nM (IC50). Further, the figures for the “APTT prolongation rate (%)” value in the series on human plasma (3 µM) and with human plasma (10 µM) were 65.8% and 136.5%, respectively. Also, the EC150 result in the series on human plasma is “less than 1 µM”.

`CC[C@@H](C(=O)Nc1ccc(C(N)=O)c(OC)c1)n1cc(OC)c(-c2cc(Cl)ccc2-n2cc(C(F)(F)F)nn2)cc1=O` [Compound 5, (S)-4-(2-(4-(5-chloro-2-(4-(trifluoromethyl)-1H-1,2,3-triazol-1-yl)phenyl)-5-methoxy-2-oxopyridin-1(2H)-yl)butanamido)-2-methoxybenzamide] showed an IC50 against human FXla of 5.6 nM. Moreover, the “APTT prolongation rate (%)” value with human plasma (3 µM) was found to be 84.6%; in the series with human plasma (10 µM) it was 125.8%. Moreover, the EC150 entry in the series on human plasma is “less than 1 µM”.

`CC[C@@H](C(=O)Nc1ccc(C(=O)O)c(Cl)c1)n1cc(OC)c(-c2cc(Cl)ccc2-n2cc(Cl)nn2)cc1=O` [Compound 9, (S)-2-chloro-4-(2-(4-(5-chloro-2-(4-chloro-1H-1,2,3-triazol-1-yl)phenyl)-5-methoxy-2-oxopyridin-1(2H)-yl)butanamido)benzoic acid] had a 50% inhibitory concentration (IC50) against human FXla of 6.32 nM. Moreover, the “APTT prolongation rate (%)” value with human plasma (1 µM) came out at 44.3%; in the series on human plasma (3 µM) it was 69.5%; with human plasma (10 µM), 103.8%.

At human FXla, `CC[C@@H](C(=O)Nc1ccc(C(N)=O)cc1F)n1cc(OC)c(-c2cc(Cl)ccc2-n2cc(C(F)(F)F)nn2)cc1=O` [Compound 13, (S)-4-(2-(4-(5-chloro-2-(4-(trifluoromethyl)-1H-1,2,3-triazol-1-yl)phenyl)-5-methoxy-2-oxopyridin-1(2H)-yl)butanamido)-3-fluorobenzamide] displayed a 50% inhibitory concentration (IC50) of 25.5 nM. Besides, the “APTT prolongation rate (%)” value in the series with human plasma (3 µM) was 80.2%; in the series on human plasma (10 µM), 175.9%. Moreover, the EC150 result with human plasma was “less than 1 µM”.

For the molecule `CC[C@@H](C(=O)Nc1ccc(C(N)=O)cc1Cl)n1cc(OC)c(-c2cc(Cl)ccc2-n2cc(C(F)(F)F)nn2)cc1=O` [Compound 16, (S)-3-chloro-4-(2-(4-(5-chloro-2-(4-(trifluoromethyl)-1H-1,2,3-triazol-1-yl)phenyl)-5-methoxy-2-oxopyridin-1(2H)-yl)butanamido)-benzamide], the “APTT prolongation rate (%)” value came out at 7.0% in the series on human plasma (1 µM), 11.7% in the series on human plasma (3 µM) and 26.8% in the series with human plasma (10 µM).

`CC[C@@H](C(=O)Nc1ccc(C(=O)NC)c(F)c1)n1cc(OC)c(-c2cc(Cl)ccc2-n2cc(C(F)(F)F)nn2)cc1=O` [Compound 17, (S)-4-(2-(4-(5-chloro-2-(4-(trifluoromethyl)-1H-1,2,3-triazol-1-yl)phenyl)-5-methoxy-2-oxopyridin-1(2H)-yl)butanamido)-2-fluoro-N-methylbenzamide] had an IC50 against human FXla of 1.65 nM. The “APTT prolongation rate (%)” value in the series with human plasma (3 µM) is on record as 82.6%; with human plasma (10 µM), 145.3%. The EC150 entry with human plasma is listed as “less than 1 µM”.

For `CC[C@@H](C(=O)Nc1ccc(C(=O)NC)c(OC)c1)n1cc(OC)c(-c2cc(Cl)ccc2-n2cc(C(F)(F)F)nn2)cc1=O` [Compound 18, (S)-4-(2-(4-(5-chloro-2-(4-(trifluoromethyl)-1H-1,2,3-triazol-1-yl)phenyl)-5-methoxy-2-oxopyridin-1(2H)-yl)butanamido)-2-methoxy-N-methylbenzamide], on human FXla, the half-maximal inhibitory concentration (IC50) is 9.06 nM. For the same molecule, the “APTT prolongation rate (%)” value in the series with human plasma (1 µM) turned out to be 33.2%; with human plasma (3 µM), 46.1%; in the series with human plasma (10 µM), 90.6%.

Take `CC[C@@H](C(=O)Nc1ccc(C(=O)NC)cc1F)n1cc(OC)c(-c2cc(Cl)ccc2-n2cc(C(F)(F)F)nn2)cc1=O` [Compound 19, (S)-4-(2-(4-(5-chloro-2-(4-(trifluoromethyl)-1H-1,2,3-triazol-1-yl)phenyl)-5-methoxy-2-oxopyridin-1(2H)-yl)butanamido)-3-fluoro-N-methylbenzamide]: the “APTT prolongation rate (%)” value is recorded as 24.2% in the series on human plasma (1 µM), 44.0% in the series with human plasma (3 µM) and 77.1% with human plasma (10 µM).

Turning to `CC[C@@H](C(=O)Nc1cc(F)c(C(=O)NC)c(F)c1)n1cc(OC)c(-c2cc(Cl)ccc2-n2cc(C(F)(F)F)nn2)cc1=O` [Compound 20, (S)-4-(2-(4-(5-chloro-2-(4-(trifluoromethyl)-1H-1,2,3-triazol-1-yl)phenyl)-5-methoxy-2-oxopyridin-1(2H)-yl)butanamido)-2,6-difluoro-N-methylbenzamide], the “APTT prolongation rate (%)” value in the series with human plasma (1 µM) is given as 19.2%; in the series with human plasma (3 µM), 49.2%; in the series with human plasma (10 µM), 98.6%.

Regarding `[2H]C([2H])([2H])Oc1cn([C@@H](CC)C(=O)Nc2ccc(C(N)=O)c(F)c2)c(=O)cc1-c1cc(Cl)ccc1-n1cc(C(F)(F)F)nn1` [Compound 21, (S)-4-(2-(4-(5-chloro-2-(4-(trifluoromethyl)-1H-1,2,3-triazol-1-yl)phenyl)-5-(methoxy-d3)-2-oxopyridin-1(2H)-yl)butanamido)-2-fluorobenzamide], the “Food intake (g, mean±SD)” value in series [1] was found to be 27.08 ± 1.23 g. For the same molecule, the “food intake compared with the blank group” value in series [1] (SD rats) is “essentially the same food intake as the blank group”.

Molecule `[2H]C([2H])([2H])Oc1cn([C@@H](CC)C(=O)Nc2ccc(C(N)=O)c(Cl)c2)c(=O)cc1-c1cc(Cl)ccc1-n1cc(C(F)(F)F)nn1` [Compound 22, (S)-2-chloro-4-(2-(4-(5-chloro-2-(4-(trifluoromethyl)-1H-1,2,3-triazol-1-yl)phenyl)-5-(methoxy-d3)-2-oxopyridin-1(2H)-yl)butanamido)benzamide] showed a half-inhibitory concentration (IC50) on human FXla of 4.23 nM. The “APTT prolongation rate (%)” value amounted to 35.6% in the series with human plasma (1 µM), 62.0% in the series on human plasma (3 µM) and 105.9% in the series with human plasma (10 µM).

As for `[2H]C([2H])([2H])Oc1cn([C@@H](CC)C(=O)Nc2ccc(C(N)=O)cc2F)c(=O)cc1-c1cc(Cl)ccc1-n1cc(C(F)(F)F)nn1` [Compound 23, (S)-4-(2-(4-(5-chloro-2-(4-(trifluoromethyl)-1H-1,2,3-triazol-1-yl)phenyl)-5-(methoxy-d3)-2-oxopyridin-1(2H)-yl)butanamide)-3-fluorobenzamide], the “APTT prolongation rate (%)” value with human plasma (1 µM) stood at 48.8%; in the series with human plasma (3 µM) it was 81.2%; in the series on human plasma (10 µM), 168.0%.

Turning to `[2H]C([2H])([2H])Oc1cn([C@@H](CC)C(=O)Nc2ccc(C(=O)NC)cc2F)c(=O)cc1-c1cc(Cl)ccc1-n1cc(C(F)(F)F)nn1` [Compound 24, (S)-4-(2-(4-(5-chloro-2-(4-(trifluoromethyl)-1H-1,2,3-triazol-1-yl)phenyl)-5-(methoxy-d3)-2-oxopyridin-1(2H)-yl)butanamido)-3-fluoro-N-methylbenzamide], the “APTT prolongation rate (%)” value was found to be 35.1% in the series with human plasma (1 µM), 73.2% with human plasma (3 µM) and 132.5% in the series on human plasma (10 µM).

For the molecule `[2H]C([2H])([2H])NC(=O)c1ccc(NC(=O)[C@@H](n2cc(OC([2H])([2H])[2H])c(-c3cc(Cl)ccc3-n3cc(C(F)(F)F)nn3)cc2=O)C([2H])([2H])C([2H])([2H])[2H])cc1F` [Compound 30, (S)-4-(2-(4-(5-chloro-2-(4-(trifluoromethyl)-1H-1,2,3-triazol-1-yl)phenyl)-5-(methoxy-d3)-2-oxopyridin-1(2H)-yl)butanamido-3,3,4,4,4-d5)-2-fluoro-N-(methyl-d3)benzamide], the “APTT prolongation rate (%)” value in the series with human plasma (1 µM) is given as 48.1%; in the series with human plasma (3 µM) it was 79.0%; with human plasma (10 µM) it was 138.4%.

With “(S)-4-(2-(4-(5-chloro-2-(4-(trifluoromethyl)-1H-1,2,3-triazol-1-yl)phenyl)-5-methoxy-2-oxopyridin-1(2H)-yl)butanamido)-3,6-difluorobenzamide [Compound 14]”, the “APTT prolongation rate (%)” value in the series with human plasma (1 µM) is on record as 0.9%; in the series on human plasma (3 µM), 9.1%; with human plasma (10 µM), 18.5%.
